Test results taken from US5362752A, “Chemical compounds” (Merck & Co., Inc., priority 1993, dated 1994).

Target: T1, squalene synthase (Homo sapiens, UniProt P37268)
T1 construct: PREPARATION OF HUMAN HEPG2 CELL ENZYME; host or cells: HepG2 (human hepatoblastoma), sonicated cell extract
T1 sequence (P37268 1-417): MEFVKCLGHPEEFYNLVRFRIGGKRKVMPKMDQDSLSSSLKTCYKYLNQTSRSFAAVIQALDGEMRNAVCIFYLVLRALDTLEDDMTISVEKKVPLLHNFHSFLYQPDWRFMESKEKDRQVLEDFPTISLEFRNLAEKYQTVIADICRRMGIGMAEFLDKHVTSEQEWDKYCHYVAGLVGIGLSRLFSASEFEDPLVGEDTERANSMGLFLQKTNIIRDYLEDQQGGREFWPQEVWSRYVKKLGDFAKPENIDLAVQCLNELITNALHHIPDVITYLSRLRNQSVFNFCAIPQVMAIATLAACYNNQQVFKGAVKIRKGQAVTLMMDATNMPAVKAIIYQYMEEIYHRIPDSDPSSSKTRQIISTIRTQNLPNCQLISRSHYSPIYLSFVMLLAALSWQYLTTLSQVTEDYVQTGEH
Assay: Squalene synthase assay with human HepG2 cell enzyme
Type: biochemical
Details: HepG2 enzyme preparation, 3 μM 3H-farnesyl pyrophosphate substrate, 30° C., 20 minutes; read-out: IC50 (squalene synthase inhibition)
Procedure: The intrinsic squalene synthase inhibitory activity of the compounds of this invention was measured by the standard in vitro protocol described below:
PREPARATION OF HUMAN HEPG2 CELL ENZYME
1. Source: HEPG2 CELL LINE (Liver, hepatoblastoma, Human) ATCC No. HB 8065
Culture Medium: Minimum essential medium (MEM) with non-essential amino acids, sodium pyruvate, and 10% fetal bovine serum. The medium was changed twice weekly. […] The growth medium is prepared as listed below.
48 hrs. prior to harvest, switch cells grown in MEM with Fetal Calf serum to MEM with 10% delipidated serum.
Remove medium, wash with PBS, add fresh trypsin (0.25%)-EDTA (0.02%) with Hank's Balanced Salt solution, rinse and remove. Incubate flask at 37° C. until cells detach. Add 6 mL of MEM medium per flask to suspend cells and combine into centrifuge tube. […]
For each reaction, 55 μL of buffer mixture was taken with 5 μL of an inhibitor solution in DMSO and 10 μL of diluted enzyme (1 to 250 as described in the enzyme preparation; the final protein concentration of enzyme in the assay is 2 μg per mL.). […] 150 μL of heptane layer was then removed into a 96 deep well plate and mixed with 150 μL of scintillation fluid and the radioactivity was determined by liquid scintillation counting. […]
IC50 values were determined by plotting the log of the concentration of the test compound versus the percentage inhibition. […]

IC50: < 2000 nM
SMILES: C=C(CCC(=O)C(O)C(OC(=O)/C=C/C(C)CC(C)CC)C(=O)O)C(OC(C)=O)C(C)Cc1ccccc1 (stereo not shown) [Composition A]
